Where a SMILES comes first, the peptide text is derived from it. Bridges are numbered along the chain shown (N, C = ends). [ ]: non-standard residue; d: D form. Phe(4-NH2) = Nc1ccc(C[C@H](N)C(=O)O)cc1; Phe(4-F) = N[C@@H](Cc1ccc(F)cc1)C(=O)O; 1Nal = N[C@@H](Cc1cccc2ccccc12)C(=O)O; 2Nal = N[C@@H](Cc1ccc2ccccc2c1)C(=O)O; Nle = CCCC[C@H](N)C(=O)O

This is an account of results in patent US5677419A, “Cyclic vasoactive peptide analogs” (Hoffmann-La Roche Inc., priority 1994, dated 1997).

The experiment concerns guinea pig tracheal smooth muscle. The experiment is described as follows: Tracheal relaxant activity of VIP analogs on isolated guinea pig tracheal rings. Type of experiment: cell-based. To be noted: cumulative concentration response, relaxation as % of maximum response to VIP (10^-6 M=100%), three tissues pooled, linear regression. The method, then: The relaxant activity of the VIP analogs were studied in a model utilizing guinea pig trachea. [Wasserman, M. A. et al., in Vasoactive Intestinal Peptide, S. I. Said, ed., Raven Press, New York 1982, pp 177-184] All tissues were taken from male albino guinea pig weighing 400-600 g, anesthetized with urethane (2 g/kg, i.p.). After exanguination, the trachea were removed and divided into four ring segments (3 mm length). Each ring was suspended by 30 gauge stainless steel wires in a 10 mL jacketed tissue bath and attached via 4-0 silk thread to a GRASS force displacement transducer (model FT03C, Grass Instruments Co., Quincy, Mass.), for isometric recording of tension. The smooth muscle was bathed in modified Krebs solution of the following composition: NaCl, 120 mM; KCl, 4.7 mM; CaCl2, 2.5 mM; MgSO4.7H2 O, 1.2 mM; NaHCO3, 25 mM; K2 HPO4 monobasic, 1.2 mM; and dextrose, 10 mM. Tissue baths were maintained at 37° C. and constantly bubbled with 95% O2 and 5% CO2. Responses were recorded on an 8 channel and a 4 channel HEWLETT-PACKARD (model 7702B and 7754A, respectively) recorder (Hewlett- Packard, Paramus, N.J.). Tracheal rings were placed under a resting tension of 1.5 g which was determined to be at or near optimal in preliminary experiments. Frequent readjustments of tension were required during the 60 minute stabilization period which followed. Tissues were rinsed at 15 minute intervals.
Cumulative concentration response curves were obtained for each tissue by successive […] increases in the bath concentration of VIP or VIP analogs according to the method of VanRossum [Arch. Int. Pharmacodyn., 143, 299-330 (1963)]. Only one cumulative dose response curve was obtained on a single tissue. To minimize variability between tissues, relaxant responses were expressed as a percentage of the maximum response obtained to VIP (10^-6 M=100%) added at the end of each concentration response experiment. Responses obtained from three tissues were pooled and EC50 values were determined by linear regression.
The results summarized in Table I show the tracheal relaxant activity of the VIP analogs in comparison to native VIP.

Consider `CCCC[C@H](NC(=O)[C@H](CCC(N)=O)NC(=O)[C@H](CCCCN)NC(=O)[C@H](CCCNC(=N)N)NC(=O)[C@H](CC(C)C)NC(=O)[C@H](CC(C)C)NC(=O)[C@@H](NC(=O)[C@H](Cc1ccc2ccccc2c1)NC(=O)[C@H](CC(N)=O)NC(=O)[C@H](CC(=O)O)NC(=O)[C@@H](NC(=O)[C@H](Cc1ccccc1)NC(=O)[C@@H](NC(=O)[C@H](C)NC(=O)[C@H](CC(=O)O)NC(=O)[C@H](CO)NC(=O)[C@H](Cc1c[nH]cn1)NC(C)=O)C(C)C)[C@@H](C)O)[C@@H](C)O)C(=O)N[C@@H](C)C(=O)N[C@@H](C)C(=O)N[C@@H](CCCCN)C(=O)N[C@H]1CCCCNC(=O)C[C@@H](C(=O)N[C@H](C(=O)N[C@@H](CC(C)C)C(=O)N[C@H](C(N)=O)[C@@H](C)O)C(C)C)NC(=O)[C@H](CC(N)=O)NC(=O)[C@H](CC(C)C)NC(=O)[C@H](Cc2ccc(O)cc2)NC1=O` [SEQ ID NO:35, Ac-[2-Nal^10,Leu^12,Nle^17,Ala^19,Asp^25,Val^26,Thr^28]-VIP cyclo (Lys^21 →Asp^25)] (Ac-HSDAVFTDN[2Nal]TLLRKQ[Nle]AAKKYLNDVLT-NH2; lactam 21-25), for which the EC50 was 4.2 nM.
`CCCC[C@H](NC(=O)[C@H](CCC(N)=O)NC(=O)[C@H](CCCCN)NC(=O)[C@H](CCCNC(=N)N)NC(=O)[C@H](CC(C)C)NC(=O)[C@H](CC(C)C)NC(=O)[C@@H](NC(=O)[C@H](Cc1ccc(OC)cc1)NC(=O)[C@H](CC(N)=O)NC(=O)[C@H](CC(=O)O)NC(=O)[C@@H](NC(=O)[C@H](Cc1ccccc1)NC(=O)[C@@H](NC(=O)[C@H](C)NC(=O)[C@H](CC(=O)O)NC(=O)[C@H](CO)NC(=O)[C@H](Cc1c[nH]cn1)NC(C)=O)C(C)C)[C@@H](C)O)[C@@H](C)O)C(=O)N[C@@H](C)C(=O)N[C@@H](C)C(=O)N[C@@H](CCCCN)C(=O)N[C@H]1CCCCNC(=O)C[C@@H](C(=O)N[C@H](C(=O)N[C@@H](CC(C)C)C(=O)N[C@H](C(N)=O)[C@@H](C)O)C(C)C)NC(=O)[C@H](CC(N)=O)NC(=O)[C@H](CC(C)C)NC(=O)[C@H](Cc2ccc(O)cc2)NC1=O` [SEQ ID NO:36, Ac-[O-Me-Tyr^10,Leu^12,Nle^17,Ala^19,Asp^25,Val^26,Thr^28]-VIP cyclo (Lys^21 →Asp^25)] (Ac-HSDAVFTDNY(Me)TLLRKQ[Nle]AAKKYLNDVLT-NH2; lactam 21-25) displayed an EC50 of 0.84 nM.
The figure for `CCCC[C@H](NC(=O)[C@H](CCC(N)=O)NC(=O)[C@H](CCCCN)NC(=O)[C@H](CCCNC(=N)N)NC(=O)[C@H](CC(C)C)NC(=O)[C@H](CC(C)C)NC(=O)[C@@H](NC(=O)[C@H](Cc1ccc(N)cc1)NC(=O)[C@H](CC(N)=O)NC(=O)[C@H](CC(=O)O)NC(=O)[C@@H](NC(=O)[C@H](Cc1ccc(F)cc1)NC(=O)[C@@H](NC(=O)[C@H](C)NC(=O)[C@H](CC(=O)O)NC(=O)[C@H](CO)NC(=O)[C@H](Cc1c[nH]cn1)NC(C)=O)C(C)C)[C@@H](C)O)[C@@H](C)O)C(=O)N[C@@H](C)C(=O)N[C@@H](C)C(=O)N[C@@H](CCCCN)C(=O)N[C@H]1CCCCNC(=O)C[C@@H](C(=O)N[C@H](C(=O)N[C@@H](CC(C)C)C(=O)N[C@H](C(N)=O)[C@@H](C)O)C(C)C)NC(=O)[C@H](CC(N)=O)NC(=O)[C@H](CC(C)C)NC(=O)[C@H](Cc2ccc(O)cc2)NC1=O` [SEQ ID NO:37, Ac-[p-F-Phe^6,p-NH2 -Phe^10,Leu^12,Nle^17,Ala^19,Asp^25,Val^26,Thr^28]-VIP cyclo (Lys^21 →Asp^25)] (Ac-HSDAV[Phe(4-F)]TDN[Phe(4-NH2)]TLLRKQ[Nle]AAKKYLNDVLT-NH2; lactam 21-25) is 4.4 nM.
The figure for `CCCC[C@H](NC(=O)[C@H](CCC(N)=O)NC(=O)[C@H](CCCCN)NC(=O)[C@H](CCCNC(=N)N)NC(=O)[C@H](CC(C)C)NC(=O)[C@H](CCCCN)NC(=O)[C@@H](NC(=O)[C@H](Cc1ccc(OC)cc1)NC(=O)[C@H](CC(N)=O)NC(=O)[C@H](CC(=O)O)NC(=O)[C@@H](NC(=O)[C@H](Cc1ccccc1)NC(=O)[C@@H](NC(=O)[C@H](C)NC(=O)[C@H](CC(=O)O)NC(=O)[C@H](CO)NC(=O)[C@H](Cc1c[nH]cn1)NC(C)=O)C(C)C)[C@@H](C)O)[C@@H](C)O)C(=O)N[C@@H](C)C(=O)N[C@@H](C)C(=O)N[C@@H](CCCCN)C(=O)N[C@H]1CCCCNC(=O)C[C@@H](C(=O)N[C@H](C(=O)N[C@@H](CC(C)C)C(=O)N[C@H](C(N)=O)[C@@H](C)O)C(C)C)NC(=O)[C@H](CC(N)=O)NC(=O)[C@H](CC(C)C)NC(=O)[C@H](Cc2ccc(O)cc2)NC1=O` [SEQ ID NO:41, Ac-[O-Me-Tyr^10,Lys^12,Nle^17,Ala^19,Asp^25,Val^26,Thr^28]-VIP cyclo (Lys^21 →Asp^25)] (Ac-HSDAVFTDNY(Me)TKLRKQ[Nle]AAKKYLNDVLT-NH2; lactam 21-25) is 2.6 nM; for `CCCC[C@H](NC(=O)[C@H](CCC(N)=O)NC(=O)[C@H](CCCCN)NC(=O)[C@H](CCCNC(=N)N)NC(=O)[C@H](CC(C)C)NC(=O)[C@H](CCCCN)NC(=O)[C@@H](NC(=O)[C@H](Cc1ccc(O)cc1)NC(=O)[C@H](CC(N)=O)NC(=O)[C@H](CC(=O)O)NC(=O)[C@@H](NC(=O)[C@H](Cc1cccc2ccccc12)NC(=O)[C@@H](NC(=O)[C@H](C)NC(=O)[C@H](CC(=O)O)NC(=O)[C@H](CO)NC(=O)[C@H](Cc1c[nH]cn1)NC(C)=O)C(C)C)[C@@H](C)O)[C@@H](C)O)C(=O)N[C@@H](C)C(=O)N[C@@H](C)C(=O)N[C@@H](CCCCN)C(=O)N[C@H]1CCCCNC(=O)C[C@@H](C(=O)N[C@H](C(=O)N[C@@H](CC(C)C)C(=O)N[C@H](C(N)=O)[C@@H](C)O)C(C)C)NC(=O)[C@H](CC(N)=O)NC(=O)[C@H](CC(C)C)NC(=O)[C@H](Cc2ccc(O)cc2)NC1=O` [SEQ ID NO:50, Ac-[1-Nal^6,Lys^12,Nle^17,Ala^19,Asp^25,Val^26,Thr^28]-VIP cyclo (Lys^21 →Asp^25)] (Ac-HSDAV[1Nal]TDNYTKLRKQ[Nle]AAKKYLNDVLT-NH2; lactam 21-25) it is 2.9 nM.
Compound `CCCC[C@H](NC(=O)[C@H](C)NC(=O)[C@H](CCCCN)NC(=O)[C@H](CCCNC(=N)N)NC(=O)[C@H](CC(C)C)NC(=O)[C@H](CCCCN)NC(=O)[C@@H](NC(=O)[C@H](Cc1ccc(O)cc1)NC(=O)[C@H](CC(N)=O)NC(=O)[C@H](CCC(=O)O)NC(=O)[C@@H](NC(=O)[C@H](Cc1ccccc1)NC(=O)[C@@H](NC(=O)[C@H](C)NC(=O)[C@H](CC(=O)O)NC(=O)[C@H](CO)NC(=O)[C@H](Cc1c[nH]cn1)NC(C)=O)C(C)C)[C@@H](C)O)[C@@H](C)O)C(=O)N[C@@H](C)C(=O)N[C@@H](C)C(=O)N[C@@H](CCCCN)C(=O)N[C@H]1CCCCNC(=O)C[C@@H](C(=O)N[C@@H](CC(C)C)C(=O)N[C@@H](CCCCN)C(=O)N[C@@H](CCCCN)C(N)=O)NC(=O)[C@H](CC(N)=O)NC(=O)[C@H](CC(C)C)NC(=O)[C@H](Cc2ccc(O)cc2)NC1=O` [SEQ ID NO:63, Ac-[Glu^8,Lys^12,Ala^16,Nle^17,Ala^19,Asp^25,Leu^26,Lys^27,28]-VIP cyclo (Lys^21 →Asp^25)] (Ac-HSDAVFTENYTKLRKA[Nle]AAKKYLNDLKK-NH2; lactam 21-25) registered an EC50 of 0.9 nM.
